What was measured:
[1] = UV-VIS absorption and fluorescence emission spectra; format: physicochemical; settings: 0.1M phosphate buffer (1x PBS for 7d5); ± 1 nm error
[2] = pH 7.2, 0.1M phosphate buffer; assumed the same as the corresponding fluorescent dye; cited from earlier work
bone resorption = settings: rat model in vivo, ref. [15a]; cited from earlier work
[3] = test system: unprenylated Rap1A (uRap1A); test: Prenylation assay: Western blot for unprenylated Rap1A in J774.2 macrophages; format: cell-based, mouse; settings: 10 or 100 μM, 24 h, FIG. 5A-C
[4] = pKa and protonation status of the heterocyclic nitrogen; format: physicochemical; settings: pH 6.0; calculated by Henderson-Hasselbalch equation
Description: The nucleophilicity and Lewis basicity of the nitrogen atom of the three heterocyclic N-BPs studied in this report vary, and these properties appear to be the major determinants of their conjugation reactivity. Thus, the ‘magic linker’ methodology for RIS required modification for ZOL (1d), MIN (1e), and their related analogues (1f). […] The protonation status of the heteroatom at different pH is also critical to the reactivity. […] Under such conditions, more than 50% (˜71.3% calculated) of the nitrogen of RIS will be deprotonated, and able to attack the epoxide ring nucleophilically. However, at pH 6.0, only 18% of the nitrogen of ZOL (22% for MIN) is deprotonated, thus the reactions were very slow (2d) at pH 6.0. At pH 7.0-7.5, reaction was more rapid, but the regioselectivity (N-alkylation vs. O-alkylation) for 1d, 1e, 1f was not as good as for RIS and its analogues (1a, 1b, 1c); 10-20% of side products could be observed, which were confirmed by HPLC, NMR and MS to be the products of N,O(P)-dialkylation (O-alkylation occurs between the phosphonate/carboxylate group of the drug and the epoxide). The reaction rate of MinPC (1f)-epoxide (5) coupling was even slower than ZOL under the same reaction conditions (same reactant ratio, pH 7.5, 40-45° C.), which might be due to a steric effect from the large heterocycle. In addition, the percent of side products was higher and O-alkylation products were also observed in the reaction mixture.
The following publications are incorporated by reference herein in their entirety: • [1] a) R. G. G. Russell, N. B. Watts, F. H. Ebetino, M. J. Rogers, Osteoporos. Int. 2008, 19, 733-759; b) F. Ebetino, A. Hogan, S. Sun, M. Tsoumpra, X. Duan, J. Triffitt, A. Kwaasi, J. Dunford, B. Barnett, U. Oppermann, M. Lundy, A. Boyde, B. Kashemirov, C. McKenna, R. Russell, Bone 2011, 49 20-33. • [2] a) I. Reid, M. Bolland, A. Grey, Bone 2007, 41, 318-320; b) A. Siddiqi, A. Payne, S. Zafar, Oral Surg. Oral Med. Oral Pathol. Oral Radiol. Endod. […]

[5] = parent compounds, ref. [23]; cited from earlier work
[6] = RIS; not covered by the MarvinSketch note; cited from earlier work

SMILES	Maximum absorption wavelength (λmax (abs), nm) [1] [nm]	Maximum emission wavelength (λmax (em), nm) [1] [nm]	Extinction coefficient [2]	Anti-resorptive activity (bone resorption)	accumulation of unprenylated Rap1A (anti-prenylation activity) [3]	fraction of the heterocyclic nitrogen deprotonated [4] [%]	rank order of mineral binding affinity [5]	pKa of the heterocyclic nitrogen [6]
O=C(NCC(O)C[n+]1ccn(CC(O)(P(=O)(O)O)P(=O)(O)O)c1)c1ccc(-c2c3ccc(=O)cc-3oc3cc(O)ccc23)c(C(=O)O)c1 (centres unmarked) [Compound 5-FAM-ZOL, 3-(3-(3-carboxy-4-(6-hydroxy-3-oxo-3H-xanthen-9-yl)benzamido)-2-hydroxypropyl)-1-(2-hydroxy-2,2-diphosphonoethyl)-1H-imidazol-3-ium]	493	521	73,000 (pH 7.2) M^−1cm^−1	demonstrated	retain some activity, although their potencies are weaker than native ZOL			
O=P(O)(O)C(O)(Cc1cccnc1)P(=O)(O)O [RIS, (1-hydroxy-2-pyridin-3-ylethane-1,1-diyl)bis(phosphonic acid)]						~71.3	RIS>dRIS>RISPC	5.67

Reference: patent publication US20180064829A1, “FLUORESCENT BISPHOSPHONATE ANALOGS” (University of Southern California, priority 2015, published 2018)
